Patent publication US9365551B2, “2-(benzyloxy) benzamides as LRRK2 kinase inhibitors” (Glaxo Group Limited, priority 2010, dated 2016)

Experiments:
[1] = molecular target: T1, 6His-Tev-LRRK2 (1326-2527) (Homo sapiens, UniProt Q5S007); assay: LRRK2 peptide substrate assay; format: biochemical; details: mean pIC50 of multiple test results
T1 construct: A LRRK2 cDNA encoding residues 1326-2527 was received from Dundee University; made in house; host or cells: Spodoptera frugiperda (Sf9) insect cells, baculovirus (pFB-HTb)
T1 sequence (Q5S007 1326-2527): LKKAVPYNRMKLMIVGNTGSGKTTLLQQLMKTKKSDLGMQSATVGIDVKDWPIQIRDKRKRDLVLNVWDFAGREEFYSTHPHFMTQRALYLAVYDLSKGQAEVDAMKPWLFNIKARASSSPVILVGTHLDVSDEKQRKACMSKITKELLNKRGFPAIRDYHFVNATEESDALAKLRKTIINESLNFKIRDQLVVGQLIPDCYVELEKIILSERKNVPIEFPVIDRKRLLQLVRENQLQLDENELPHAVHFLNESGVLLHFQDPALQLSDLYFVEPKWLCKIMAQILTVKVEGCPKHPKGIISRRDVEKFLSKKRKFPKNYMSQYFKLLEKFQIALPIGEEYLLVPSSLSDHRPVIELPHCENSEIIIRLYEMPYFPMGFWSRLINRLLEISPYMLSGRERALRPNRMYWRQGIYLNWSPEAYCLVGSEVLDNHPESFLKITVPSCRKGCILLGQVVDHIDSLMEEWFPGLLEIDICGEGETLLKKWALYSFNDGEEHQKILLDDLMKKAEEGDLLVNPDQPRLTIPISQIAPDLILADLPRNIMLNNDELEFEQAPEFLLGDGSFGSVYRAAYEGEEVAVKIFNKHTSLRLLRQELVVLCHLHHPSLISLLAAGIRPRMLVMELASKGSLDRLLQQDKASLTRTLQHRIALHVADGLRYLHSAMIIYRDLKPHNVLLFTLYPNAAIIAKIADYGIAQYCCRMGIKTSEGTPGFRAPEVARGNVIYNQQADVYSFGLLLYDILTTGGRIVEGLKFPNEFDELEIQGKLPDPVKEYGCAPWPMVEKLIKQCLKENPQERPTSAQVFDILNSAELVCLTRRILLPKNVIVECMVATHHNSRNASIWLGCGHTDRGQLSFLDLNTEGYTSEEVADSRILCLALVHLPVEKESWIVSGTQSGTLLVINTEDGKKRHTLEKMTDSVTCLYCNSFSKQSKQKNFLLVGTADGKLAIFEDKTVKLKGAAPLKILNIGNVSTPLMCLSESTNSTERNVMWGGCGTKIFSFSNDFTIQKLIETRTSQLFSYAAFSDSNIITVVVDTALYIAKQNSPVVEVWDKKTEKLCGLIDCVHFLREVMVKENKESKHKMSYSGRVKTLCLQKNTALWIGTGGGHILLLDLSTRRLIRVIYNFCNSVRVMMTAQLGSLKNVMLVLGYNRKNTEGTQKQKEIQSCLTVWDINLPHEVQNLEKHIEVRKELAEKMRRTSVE
Method: (§1) Compounds of formula (I) may be tested for in vitro kinase activity in accordance with the following assays, using the non natural, in vitro, substrates moesin and the Longer Biotin-LRRKtide. Moesin and a shorter version of the peptide were identified as substrates in Jaleel et al. (2007, Biochem J, 405: 307-317).
LRRK2 Peptide Substrate Assay
a) 100 nl of a 1:4 serial dilution of test compound with a top final assay concentration of 30 μM is added to certain wells in a low volume 384 well black plate. 100 nl of DMSO is used in certain wells as controls.
(§2) b) 3 μl enzyme solution (80 nM purified recombinant 6His-Tev-LRRK2 (1326-2527) in assay buffer: 50 mM Hepes (pH 7.2), 10 mM MgCl2, 150 mM NaCl, 5% glycerol, 0.0025% triton X-100 and 1 mM DTT) is added to certain wells. 3 μl assay buffer is added to certain wells as a 100% inhibition (no enzyme) control. c) After incubation at room temperature for 30 minutes, 3 μl substrate solution (2 μM Biotin-LRRKtide peptide substrate and ATP at Km in assay buffer) is added to each well. Plates are then incubated for a further 1-2 hours at room temperature (incubation time varies depending upon rate and linearity of reaction with differing enzyme batches). d) 6 μl detection solution (50 nM Streptavidin SureLight® APC (PerkinElmer), 4 nM Eu-W1024 labelled anti-rabbit IgG antibody (PerkinElmer), 1:500 dilution (dilution determined on a batch to batch basis) of Phospho-Ezrin (Thr567)/Radixin (Thr564)/Moesin (Thr558) Polyclonal Antibody (New England Biolabs) and 60 mM EDTA in buffer: 40 mM Hepes (pH 7.2), 150 mM NaCl, 0.03% BSA) is added to each well. Plates are then incubated for a further 2 hours at room temperature before reading on a suitable plate reader (Excitation 330 nm, emission 620 nm (Eu) and 665 nm (APC)). Data is analysed using ActivityBase software (IDBS). LRRK2 AlphaScreen Desensitised Protein Substrate Assay a) 100 nl of a 1:4 serial dilution of test compound with a top final assay concentration of 30 μM is added to certain wells in a low volume 384 well black plate. 100 nl of DMSO is used in certain wells as controls. b) 3 μl enzyme solution (80 nM purified recombinant 6His-Tev-LRRK2 (1326-2527) in assay buffer: 50 mM Hepes (pH 7.2), 10 mM MgCl2, 150 mM NaCl, 5% glycerol, 0.0025% triton X-100 and 1 mM DTT) is added to certain wells. 3 μl assay buffer is added to certain wells as a 100% inhibition (no enzyme) control. c) After incubation at room temperature for 30 minutes, 3 μl substrate solution (200 nM GST-PS-Moesin (400-577) and 2 mM ATP in assay buffer) is added to each well. Plates are then incubated for 20 minutes at room temperature. d) 6 μl detection solution (1:250 dilution of AlphaLisa Protein A Acceptor beads (PerkinElmer), 1:64 dilution of AlphaLisa Gluthathione Donor beads (PerkinElmer) and 1:600 dilution (dilution determined on a batch to batch basis) of Phospho-Ezrin (Thr567)/Radixin (Thr564)/Moesin (Thr558) Polyclonal Antibody (New England Biolabs) in a buffer: 50 mM Hepes (pH 7.5), 250 mM NaCl, 60 mM EDTA, 1% PEG and 0.01% Brij 35) is added to each well. Plates are then incubated for a further 2 hours at room temperature in the dark before reading on an EnVision™ plate reader with AlphaScreen HTS turbo option module and AlphaScreen settings. Data is analysed using ActivityBase software (IDBS). Pharmacological Data

[2] = molecular target: T1, 6His-Tev-LRRK2 (1326-2527); assay: LRRK2 AlphaScreen desensitised protein substrate assay; format: biochemical; details: mean pIC50 of multiple test results
Method: as §1, §2

[3] = Biotin-LRRKtide peptide substrate, ATP at Km, read-out: LRRK2 peptide substrate assay (pIC50) (converted)
[4] = stated as threshold, read-out: pIC50 in the LRRK2 peptide substrate assay (bounds) (converted)
[5] = GST-PS-Moesin (400-577) substrate, 2 mM ATP, read-out: LRRK2 alphascreen desensitized protein substrate assay (pIC50) (converted)
[6] = stated as threshold, read-out: pIC50 in the LRRK2 alphascreen desensitised protein substrate assay (bounds) (converted)

Compound | IC50 [1, 3] [µM] | IC50 [1, 4] [µM] | IC50 [2, 5] [µM] | IC50 [2, 6] [µM]
CN(C)C(=O)c1cc(OCc2ccccc2)c(C(=O)Nc2cccnc2)cc1-c1cnn(C)c1 [Example 32] | 0.0501 | ≤ 0.1 | 0.2 | ≤ 0.316
O=C(Nc1ccnnc1)c1cc(C(F)(F)F)c(CN2CCCCC2)cc1OCc1ccccc1 [Example 36, 2-[(Phenylmethyl)oxy]-4-(1-piperidinylmethyl)-N-4-pyridazinyl-5-(trifluoromethyl)benzamide] | – | ≤ 1.26 | – | ≤ 25.1
Cn1cc(-c2cc(OCc3ccc(F)cc3)c(C(=O)Nc3cccnc3)cc2CN2CCOCC2)cn1 [Example 13, 2-{[(4-Fluorophenyl)methyl]oxy}-4-(1-methyl-1H-pyrazol-4-yl)-5-(4-morpholinylmethyl)-N-3-pyridinylbenzamide] | 0.0794 | ≤ 0.1 | 0.794 | ≤ 25.1
Cn1cc(-c2cc(C(=O)Nc3cccnc3)c(OCc3ccc(F)cc3)cc2CN2CCOCC2)cn1 [Example 17, 2-{[(4-Fluorophenyl)methyl]oxy}-5-(1-methyl-1H-pyrazol-4-yl)-4-(4-morpholinylmethyl)-N-3-pyridinylbenzamide] | 0.0501 | ≤ 0.1 | 0.158 | ≤ 0.316
Cc1nocc1NC(=O)c1cc(-c2cnn(C)c2)c(C(=O)N2CCOCC2)cc1OCc1ccccc1 [Example 25, N-(3-Methyl-4-isoxazolyl)-5-(1-methyl-1H-pyrazol-4-yl)-4-(4-morpholinylcarbonyl)-2-[(phenylmethyl)oxy]benzamide] | – | ≤ 0.1 | – | ≤ 25.1
Cc1cc(OCc2ccccc2)c(C(=O)Nc2cccnc2)cc1Br [Example 6, 5-Bromo-4-methyl-2-[(phenylmethyl)oxy]-N-3-pyridinylbenzamide] | – | ≤ 0.01 | – | ≤ 0.316
Cn1cc(-c2cc(C(=O)Nc3ccnnc3)c(OCc3ccc(F)cc3)cc2C(=O)N2CCOCC2)cn1 [Example 27, 2-{[(4-Fluorophenyl)methyl]oxy}-5-(1-methyl-1H-pyrazol-4-yl)-4-(4-morpholinylcarbonyl)-N-4-pyridazinylbenzamide] | 0.0501 | ≤ 0.1 | 1.58 | ≤ 25.1
Cc1cc(C(=O)Nc2cccnc2)c(OCc2ccccc2)cc1-c1cnn(C)c1 [Example 11, 5-Methyl-4-(1-methyl-1H-pyrazol-4-yl)-2-[(phenylmethyl)oxy]-N-3-pyridinylbenzamide] | 0.00794 | ≤ 0.01 | 0.0501 | ≤ 0.316

Now from value to molecule, other results behind:

IC50 [1, 3] [µM] | IC50 [1, 4] [µM] | Compound | IC50 [2, 5] [µM] | IC50 [2, 6] [µM]
– | ≤ 1.26 | O=C(Nc1cccc(Cl)c1)c1cc(C(F)(F)F)c(CN2CCOCC2)cc1OCc1ccccc1 [Example 52, 2-(Benzyloxy)-N-(3-chlorophenyl)-4-(morpholinomethyl)-5-(trifluoromethyl)benzamide] | – | > 25.1
– | ≤ 1.26 | O=C(Nc1ccnnc1)c1cc(C(F)(F)F)c(C(=O)N2CCCCC2)cc1OCc1ccccc1 [Example 40, 2-[(Phenylmethyl)oxy]-4-(1-piperidinylcarbonyl)-N-4-pyridazinyl-5-(trifluoromethyl)benzamide] | – | ≤ 25.1
0.0398 | ≤ 0.1 | O=C(Nc1cccnc1)c1cc(C(F)(F)F)c(C(=O)N2CCOCC2)cc1OCc1ccccc1 [Example 37, 4-(4-Morpholinylcarbonyl)-2-[(phenylmethyl)oxy]-N-3-pyridinyl-5-(trifluoromethyl)benzamide] | 0.794 | ≤ 25.1
– | ≤ 0.1 | CN1CCN(C(=O)c2cc(OCc3ccccc3)c(C(=O)Nc3ccnnc3)cc2Cl)CC1 [Example 55, 2-(benzyloxy)-5-chloro-4-(4-methylpiperazine-1-carbonyl)-N-(pyridazin-4-yl)benzamide] | – | ≤ 0.316
0.01 | ≤ 0.01 | Cn1cc(-c2cc(C(=O)Nc3cccc(F)c3)c(OCc3ccc(F)cc3)cc2C(=O)N2CCOCC2)cn1 [Example 47, 2-((4-fluorobenzyl)oxy)-N-(3-fluorophenyl)-5-(1-methyl-1H-pyrazol-4-yl)-4-(morpholine-4-carbonyl)benzamide] | 0.126 | ≤ 0.316
– | ≤ 0.1 | O=C(Nc1ccnnc1)c1cc(Cl)c(C(=O)N2CCOCC2)cc1OCc1ccccc1 [Example 46, 5-Chloro-4-(4-morpholinylcarbonyl)-2-[(phenylmethyl)oxy]-N-4-pyridazinylbenzamide] | – | ≤ 25.1
– | ≤ 0.1 | Cn1cc(-c2cc(C(=O)Nc3cccc(Cl)c3)c(OCc3ccccc3)cc2CN2CCOCC2)cn1 [Example 49, 2-(benzyloxy)-N-(3-chlorophenyl)-5-(1-methyl-1H-pyrazol-4-yl)-4-(morpholinomethyl)benzamide] | – | > 25.1
– | ≤ 0.01 | O=C(Nc1cccc(F)c1)c1cc(C(F)(F)F)c(CN2CCOCC2)cc1OCc1ccccc1 [Example 53, 2-(Benzyloxy)-N-(3-fluorophenyl)-4-(morpholinomethyl)-5-(trifluoromethyl)benzamide] | – | > 25.1
